Measurements reported in ChEMBL document CHEMBL3832761, “MMV Pathogen Box Bioactivity Data” (2017).
Converted amounts (≈) assume the structure as drawn.

Tests used:
Type in all cases: functional
[1] = test system: Mycobacterium tuberculosis; assay: AntiMycobacterium tuberculosis activity 2-week 7H9/glucose/BSA/Tx MIC (uM); settings: 336 h
[2] = test system: Mycobacterium tuberculosis; assay: AntiMycobacterium tuberculosis activity 2-week GAST/Fe MIC (uM); settings: 336 h
[3] = test system: Mycobacterium tuberculosis; assay: AntiMycobacterium tuberculosis activity 1-week 7H9/cholesterol/BSA/Tx MIC (uM); settings: 168 h
[4] = test system: Mycobacterium tuberculosis; assay: (§1) AntiMycobacterium tuberculosis activity day 10 in 7H9/2.5mM butyrate/pH6/0.1mM nitrite MIC90 (uM); settings: 240 h
HepG2 [5] = assay: HepG2 glucose CC50 (uM) Cytotoxicity
[6] = test system: Mycobacterium tuberculosis; assay: AntiMycobacterium tuberculosis activity 2-week 7H9/DPPC/cholesterol/BSA/Tx MIC (uM); settings: 336 h
[7] = test system: Mycobacterium tuberculosis; assay: AntiMycobacterium tuberculosis activity 1-week 7H9/glucose/BSA/Tx MIC (uM); settings: 168 h
[8] = test system: Mycobacterium tuberculosis; assay: AntiMycobacterium tuberculosis activity 2-week 7H9/ADC/Tw MIC (uM); settings: 336 h
[9] = test system: Mycobacterium tuberculosis; assay: AntiMycobacterium tuberculosis activity 1-week 7H9/ADC/Tw MIC (uM); settings: 168 h
[10] = test system: Mycobacterium tuberculosis; assay: AntiMycobacterium tuberculosis activity 1-week GAST/Fe MIC (uM); settings: 168 h
[11] = test system: Mycobacterium tuberculosis; assay: AntiMycobacterium tuberculosis activity 1-week 7H9/DPPC/cholesterol/BSA/Tx MIC (uM); settings: 168 h
[12] = test system: Mycobacterium tuberculosis; assay: AntiMycobacterium tuberculosis activity day 21 MIC99 in 7H9/2.5mM butyrate/pH6/0.1mM nitrite MIC99 (uM); settings: 504 h
[13] = test system: Mycobacterium tuberculosis; assay: AntiMycobacterium tuberculosis activity 2-week Alamar Blue 7H9/ADC/Tw MIC (uM); settings: 336 h
[14] = test system: Mycobacterium tuberculosis; assay: AntiMycobacterium tuberculosis activity 2-week Alamar Blue 7H9/cholesterol/BSA/Tx MIC (uM); settings: 336 h
HepG2 [15] = assay: HepG2 galactose CC50 (uM) Cytotoxicity
[16] = test system: Mycobacterium tuberculosis; assay: as §1; settings: 240 h; remark: listed apart in the source
[17] = test system: Mycobacterium tuberculosis; assay: AntiMycobacterium tuberculosis activity day 21 in 7H9/2.5mM butyrate/pH6/0.1mM nitrite MIC90 (uM); settings: 504 h

| SMILES | MIC [1] [µM] | MIC [2] [µM] | MIC [3] [µM] | MIC90 [4] [µM] | CC50 (HepG2 [5]) [µM] | CC50 (HepG2 [5]; Homo sapiens, HepG2) [µM] | MIC [6] [µM] | MIC [7] [µM] | MIC [8] [µM] | MIC [9] [µM] | MIC [10] [µM] | MIC [11] [µM] | MIC [12] [µM] | MIC [13] [µM] | MIC [14] [µM] | CC50 (HepG2 [15]) [µM] | CC50 (HepG2 [15]; Homo sapiens, HepG2) [µM] | MIC90 [16] [µM] | MIC90 [17] [µM] |
| --- | --- | --- | --- | --- | --- | --- | --- | --- | --- | --- | --- | --- | --- | --- | --- | --- | --- | --- | --- |
| Brc1cncc(-c2cc(NCCCn3ccnc3)nc(-c3ccccc3)n2)c1 | 12.5 (≈ 5.44 µg/mL) | 12.5 (≈ 5.44 µg/mL) | 9.4 (≈ 4.09 µg/mL) | 12.5 (≈ 5.44 µg/mL) | 28.3 | 16.4 | 9.4 (≈ 4.09 µg/mL) | 4.7 (≈ 2.05 µg/mL) | 25 (≈ 10.9 µg/mL) | 37 (≈ 16.1 µg/mL) | 12.5 (≈ 5.44 µg/mL) | 6.25 (≈ 2.72 µg/mL) | > 50 | 12.5 (≈ 5.44 µg/mL) | 6.25 (≈ 2.72 µg/mL) | > 50 | 43.6 | > 50 | 12.5 (≈ 5.44 µg/mL) |
| O=C(N[C@H](Cc1ccccc1)C(=O)Nc1ccccc1N1CCOCC1)c1cccs1 | 4.7 (≈ 2.05 µg/mL) | 0.15 (≈ 0.0653 µg/mL) | 1.56 (≈ 0.679 µg/mL) | 6.25 (≈ 2.72 µg/mL) |  | > 50 | 2.3 (≈ 1 µg/mL) | 3.13 (≈ 1.36 µg/mL) | 1.2 (≈ 0.523 µg/mL) | 1.2 (≈ 0.523 µg/mL) | 0.15 (≈ 0.0653 µg/mL) | 2.3 (≈ 1 µg/mL) | > 50 | 1.2 (≈ 0.523 µg/mL) | 3.13 (≈ 1.36 µg/mL) |  | > 50 | > 50 | 12.5 (≈ 5.44 µg/mL) |
| O=[N+]([O-])c1cn2c(n1)OC[C@@H](OCc1ccc(OC(F)(F)F)cc1)C2 [PRETOMANID] | 0.6 (≈ 0.216 µg/mL) | 0.15 (≈ 0.0539 µg/mL) | 0.1 (≈ 0.0359 µg/mL) | 0.39 (≈ 0.14 µg/mL) |  | > 50 | 0.2 (≈ 0.0719 µg/mL) | 0.39 (≈ 0.14 µg/mL) | 0.39 (≈ 0.14 µg/mL) | 0.39 (≈ 0.14 µg/mL) | 0.2 (≈ 0.0719 µg/mL) | 0.2 (≈ 0.0719 µg/mL) | 3.1 (≈ 1.11 µg/mL) | 0.39 (≈ 0.14 µg/mL) | 0.3 (≈ 0.108 µg/mL) |  | > 50 | 0.78 (≈ 0.28 µg/mL) | 0.78 (≈ 0.28 µg/mL) |
| Cc1ccc2nc(C)c(-c3ccn(Cc4ccccc4)n3)n2c1 | ≥ 50 | 0.78 (≈ 0.236 µg/mL) | 9.4 (≈ 2.84 µg/mL) | 6.25 (≈ 1.89 µg/mL) | > 50 | 35.5 | 37 (≈ 11.2 µg/mL) | 50 (≈ 15.1 µg/mL) | > 50 | 50 (≈ 15.1 µg/mL) | 0.78 (≈ 0.236 µg/mL) | 12.5 (≈ 3.78 µg/mL) | > 50 | 19 (≈ 5.75 µg/mL) | 4.7 (≈ 1.42 µg/mL) | 28.6 | 36.1 | > 50 | 50 (≈ 15.1 µg/mL) |
| COc1ccc2nccc(NC(=O)C3CCN(CCc4ccc(Cl)cc4)CC3)c2n1 | 0.78 (≈ 0.331 µg/mL) | 0.39 (≈ 0.166 µg/mL) | 0.39 (≈ 0.166 µg/mL) | 0.39 (≈ 0.166 µg/mL) |  | > 50 | 0.78 (≈ 0.331 µg/mL) | 0.39 (≈ 0.166 µg/mL) | 0.39 (≈ 0.166 µg/mL) | 0.39 (≈ 0.166 µg/mL) | 0.3 (≈ 0.127 µg/mL) | 0.39 (≈ 0.166 µg/mL) | > 50 | 0.39 (≈ 0.166 µg/mL) | 0.6 (≈ 0.255 µg/mL) |  | > 50 | > 50 | 0.78 (≈ 0.331 µg/mL) |
| c1ccc(-c2nc(NC3CCCCC3)cc(C3CC3)n2)nc1 | 50 (≈ 14.7 µg/mL) | 25 (≈ 7.36 µg/mL) | 19 (≈ 5.59 µg/mL) | 25 (≈ 7.36 µg/mL) |  | > 50 | 50 (≈ 14.7 µg/mL) | 37 (≈ 10.9 µg/mL) | 50 (≈ 14.7 µg/mL) | 37 (≈ 10.9 µg/mL) | 25 (≈ 7.36 µg/mL) | 25 (≈ 7.36 µg/mL) | > 50 | 37 (≈ 10.9 µg/mL) | 9.4 (≈ 2.77 µg/mL) |  | > 50 | 50 (≈ 14.7 µg/mL) | 50 (≈ 14.7 µg/mL) |
| COc1cc(CN2CCC3(C=Cc4ccccc43)CC2)cc2c1OCO2 | 2.3 (≈ 0.804 µg/mL) | 0.78 (≈ 0.273 µg/mL) | 1.56 (≈ 0.545 µg/mL) | 6.25 (≈ 2.18 µg/mL) |  | > 50 | 2.3 (≈ 0.804 µg/mL) | 2.3 (≈ 0.804 µg/mL) | 0.78 (≈ 0.273 µg/mL) | 1.2 (≈ 0.419 µg/mL) | 0.6 (≈ 0.21 µg/mL) | 1.56 (≈ 0.545 µg/mL) | 12.5 (≈ 4.37 µg/mL) | 0.78 (≈ 0.273 µg/mL) | 2.3 (≈ 0.804 µg/mL) |  | > 50 | 12.5 (≈ 4.37 µg/mL) | 6.25 (≈ 2.18 µg/mL) |
| COc1cccc(NC(=O)c2c(NC(=O)c3cccnc3)sc3c2CCC3)c1 | 6.25 (≈ 2.46 µg/mL) | 12.5 (≈ 4.92 µg/mL) | 12.5 (≈ 4.92 µg/mL) | 3.12 (≈ 1.23 µg/mL) |  | > 50 | 50 (≈ 19.7 µg/mL) | 4.7 (≈ 1.85 µg/mL) | 12.5 (≈ 4.92 µg/mL) | 12.5 (≈ 4.92 µg/mL) | 9.4 (≈ 3.7 µg/mL) | 9.4 (≈ 3.7 µg/mL) | > 50 | 12.5 (≈ 4.92 µg/mL) | > 50 |  | > 50 | > 50 | > 50 |
| COc1cc(Br)cc2cc(C(=O)Nc3cccc(C(F)(F)F)c3)c(=O)oc12 | 9.4 (≈ 4.16 µg/mL) | 4.7 (≈ 2.08 µg/mL) | 6.25 (≈ 2.76 µg/mL) | 1.5 (≈ 0.663 µg/mL) |  | > 50 | 9.4 (≈ 4.16 µg/mL) | 1.56 (≈ 0.69 µg/mL) | > 50 | 50 (≈ 22.1 µg/mL) | 1.2 (≈ 0.531 µg/mL) | 2.3 (≈ 1.02 µg/mL) | 12.5 (≈ 5.53 µg/mL) | > 50 | 12.5 (≈ 5.53 µg/mL) |  | > 50 | 12.5 (≈ 5.53 µg/mL) | 12.5 (≈ 5.53 µg/mL) |
| Clc1ccc(CCNc2cc(-c3ccccc3)nc3ncnn23)cc1 | > 50 | 1.2 (≈ 0.42 µg/mL) | 3.13 (≈ 1.09 µg/mL) | 6.25 (≈ 2.19 µg/mL) |  | > 50 | > 50 | 50 (≈ 17.5 µg/mL) | > 50 | 50 (≈ 17.5 µg/mL) | 0.3 (≈ 0.105 µg/mL) | 4.7 (≈ 1.64 µg/mL) | > 50 | 6.25 (≈ 2.19 µg/mL) | 3.13 (≈ 1.09 µg/mL) |  | > 50 | > 50 | 25 (≈ 8.75 µg/mL) |
